From US20080221205A1, “FURAN DERIVATIVES FOR PREVENTING AND CURING OSTEOPOROSIS AND PHARMACEUTICAL COMPOSITIONS CONTAINING THE SAME” (priority 2002, published 2008)

System: osteoclast formation
Assay: Inhibition rate of furan derivatives versus osteoclast formation (TRAP staining)
Assay type: cell-based, mice
Conditions: TRAP-positive multinucleated cells, untreated control set as 100%
Description: First, bone marrow cells were isolated, as follow. After sacrificing 7-9 week female mice by cervical dislocation, femur and tibia were excised aseptically while removing attached soft tissues. After cutting both ends of long bones, 1 ml of an enzyme solution, containing 0.1% collagenase (Gibco), 0.05% trypsin and 0.5 mM EDTA (Gibco), was injected to the bone marrow cavity at one end using a syringe with a 26-guage needle, and bone marrow was then collected. After shaking the recovered bone marrow for 30 min, bone marrow cells were collected, and cultured in α-minimum essential medium (α-MEM) supplemented with 10% FBS for 24 hrs. Then, non-adherent cells were collected, which are osteoclast pregenitors, aliquotted onto culture plates at a density of 2×10^5 cells per well, and cultured for 8 days in α-MEM supplemented with 20 ng/ml of macrophage-colony stimulating factor (M-CSF, Peprotech, USA) and 30 ng/ml RANKL (Peprotech, USA). During the 8 days of culturing, the cells were treated with the Compound 1. Thereafter, osteoclast formation was investigated by fixing the cultured cells and then carrying out TRAP staining, as described in the following Experimental Example 2.2. In addition, resorption activity of osteoclasts was investigated by measuring the absorption area after removing osteoclasts in cultures in calcium phosphate-coated plates, as described in Experimental Example 2.3, below.
After cell culture, the adherent cells were washed with PBS, and TRAP staining was performed, as follows. After being fixed with citrate-acetate-formaldehyde for 5 min, the cells were incubated for 1 hr in acetate buffer (prewarmed at 37° C., pH 5.0) containing naphthol AS-BI phosphate, fast Garnet GBC and 7 mM tartrate buffer (pH 5.0). TRAP-positive multinucleated cells having 3 or more nuclei were considered as osteoclasts.
Osteoclast pregenitor cells were isolated, and their differentiation to mature osteoclasts was induced, according to the same method as in the Experimental Example 2-1, while treated with each of the furan derivatives of the present invention. According to the same method as in the Experimental Example 2-2, TRAP staining performed, and TRAP-positive multinucleated cells were counted. An inhibition rate of each furan derivative against osteoclast formation was expressed as percentage, wherein the number of stained cells in a control not treated the furan derivative was arbitrarily set as 100% (Tables 14 to 16).

SMILES | Inhibition rate against osteoclast formation, % (0.1 μM) | Inhibition rate against osteoclast formation, % (1 μM) | Inhibition rate against osteoclast formation, % (10 μM)
COc1ccccc1OCc1ccc(C(=O)Nc2ccc(C)c(C)c2)o1 [Compound 175] | 0% | 0% | –
O=C(O)c1ccc(CSCc2ccccc2)o1 [Compound 120] | 0% | 0% | –
COC(=O)c1ccc(COc2ccc(I)cc2)o1 [Compound 79] | 0% | 0% | –
O=C(Oc1ccccc1)c1ccc(COc2ccccc2Cl)o1 [Compound 98] | 0% | 0% | –
CC(=O)c1ccc(NC(=O)c2ccc(COc3cccc4ccccc34)o2)cc1 [Compound 160] | 0% | 0% | –
CC(C)(C)NC(=O)c1ccc(COCC(F)(F)F)o1 [Compound 127] | 0% | 0% | –
O=C(Nc1ccccc1F)c1ccc(COc2ccc(Cl)cc2)o1 [Compound 178] | 0% | 0% | –
COC(=O)c1ccccc1NC(=O)c1ccc(COc2ccc(Cl)cc2Cl)o1 [Compound 167] | 0% | – | –
Cc1ccc(F)c(NC(=O)c2ccc(COc3ccccc3[N+](=O)[O-])o2)c1 [Compound 158] | 0% | 0% | –
COc1ccc(NC(=O)c2ccc(COc3cc(Cl)ccc3Cl)o2)c(OC)c1 [Compound 145] | 0% | – | –
O=Cc1ccc(COC(=O)Cc2ccc(F)cc2F)o1 [Compound 39] | 0% | 10% | –
O=Cc1ccc(COC(=O)Cc2cccc(F)c2)o1 [Compound 37] | 0% | 10% | –
COC(=O)c1ccc(C)c(NC(=O)c2ccc(COc3ccc(I)cc3)o2)c1 [Compound 152] | – | 0.08% | –
O=C(c1ccc(COc2cc(Cl)ccc2Cl)o1)N1CCCCCC1 [Compound 133] | 0% | 0% | 0.5%
O=C(O)c1ccc(COc2ccc(Br)cc2)o1 [Compound 103] | 0% | 0% | –
Cc1ccc(OCc2ccc(C(=O)Nc3ccc(F)c(F)c3)o2)cc1C [Compound 186] | 0% | 0% | –
O=Cc1ccc(COC(=O)Nc2cccc(Cl)c2)o1 [Compound 49] | 0% | 10% | 0%
COC(=O)c1ccc(COc2ccc(Cl)cc2[N+](=O)[O-])o1 [Compound 66] | 0% | 0% | –
O=C(Nc1ccccc1)c1ccc(COc2ccc3ccccc3c2)o1 [Compound 137] | 0% | 0% | –
COC(=O)c1ccc(CNC(C)(C)C)o1 [Compound 91] | 0% | 0% | –
O=C(Nc1ccc(Br)cc1)c1ccc(COc2ccc(I)cc2)o1 [Compound 146] | 0% | 0% | –
COc1ccc(NC(=O)c2ccc(COc3ccccc3Cl)o2)cc1Cl [Compound 142] | 0% | 0% | –
O=Cc1ccc(COC(=O)Cc2ccsc2)o1 [Compound 36] | 0% | – | 30%

SMILES | Inhibition rate against osteoclast formation, % (0.1 μM) | Inhibition rate against osteoclast formation, % (1 μM) | Inhibition rate against osteoclast formation, % (10 μM)
CCCCNC(=O)OCc1ccc(C=O)o1 [Compound 53] | 0% | 10% | –
COc1ccc(NC(=O)c2ccc(COc3ccccc3Br)o2)c(OC)c1 [Compound 188] | 0% | 0% | 7.6%
O=C(O)c1ccc(COc2cc(Cl)ccc2Cl)o1 [Compound 109] | 0% | 0% | –
O=C(O)c1ccc(COc2cccc3ccccc23)o1 [Compound 117] | 0% | 0% | –
COC(=O)c1ccc(COc2ccc3c(c2)CCC3)o1 [Compound 70] | 0% | 0% | –
COC(=O)c1ccc(COc2ccccc2[N+](=O)[O-])o1 [Compound 67] | 0% | 0% | –
COc1cccc(F)c1CC(=O)OCc1ccc(C=O)o1 [Compound 41] | 0% | – | –
COC(=O)c1ccc(COc2ccc(Cl)cc2Cl)o1 [Compound 60] | 0% | 0% | –
O=Cc1ccc(COC(=O)Nc2ccc(Br)cc2)o1 [Compound 50] | 0% | 10% | 0%
COc1cc([N+](=O)[O-])ccc1NC(=O)c1ccc(COc2ccc(Cl)cc2)o1 [Compound 182] | 0% | 0% | –
Cc1cc(C)cc(OCc2ccc(C(=O)Nc3ccccc3F)o2)c1 [Compound 177] | 0% | 0% | –
COc1ccccc1OCc1ccc(C(=O)OC(C)C)o1 [Compound 94] | 0% | 0% | 5.9%
O=Cc1ccc(COC(=O)Nc2ccccc2Cl)o1 [Compound 55] | 0% | 20% | 20%
O=Cc1ccc(COC(=O)Cc2c(F)cccc2F)o1 [Compound 33] | 0% | 3.3% | 50%
O=C(Nc1cc(F)ccc1F)c1ccc(COc2cccc(Cl)c2)o1 [Compound 151] | 0% | 0% | –
CCC(C)NC(=O)c1ccc(COc2ccc(I)cc2)o1 (centres unmarked) [Compound 121] | 0% | 0% | –
COc1ccccc1NC(=O)c1ccc(COc2ccc(C(C)(C)C)cc2)o1 [Compound 189] | 0% | 0% | –
Cc1cc(OCc2ccc(C(=O)O)o2)ccc1Cl [Compound 119] | 0% | 0% | –
C=CCc1ccc(OCc2ccc(C(=O)OC)o2)c(OC)c1 [Compound 59] | 0% | 0% | –
O=Cc1ccc(COC(=O)Cc2c(F)cccc2Cl)o1 [Compound 34] | 0% | – | –
O=C(O)c1ccc(COc2ccccc2Br)o1 [Compound 108] | 0% | 0% | –
Cc1cc(OCc2ccc(C(=O)N3CCOCC3)o2)ccc1Cl [Compound 132] | 0% | 0% | –
